Data: patent US12285407B2, “Bis-indolylmethane derivatives and uses thereof” (The University of The West Indies, priority 2018, dated 2025)
Like-named read-outs stand apart in the source and are kept apart here.

What was measured:
MRSA = test: Adjuvant broth microdilution (antibiotic MIC with SP-BIM at 50 μg/mL); assay type: cell-based, Staphylococcus aureus; settings: Staphylococcus aureus, antibiotic alone, Table 4, read-out: MIC of antibiotic, No compound
Streptococcus pneumoniae [1] = test: as above; assay type: cell-based; settings: Streptococcus pneumoniae; Streptococcus pneumonia; antibiotic alone; Table 5; read-out: MIC of antibiotic, No compound
Klebsiella pneumoniae [2] = test: as above; assay type: cell-based; settings: Klebsiella pneumoniae; antibiotic alone; Table 7; read-out: MIC of antibiotic, No compound
Staphylococcus aureus = test: Checkerboard synergy (FICI) of antibiotics with SP-BIM; assay type: cell-based; settings: Staphylococcus aureus, Staphylococcus aureus
Streptococcus pneumoniae [3] = test: as above; assay type: cell-based
Bacillus cereus = test: as above; assay type: cell-based; settings: for MIC: 24 h, antibiotic alone, read-out: MIC antibiotic only
Enterococcus faecium = test: as above; assay type: cell-based; settings: Enterococcus faecium
Klebsiella pneumoniae [4] = test: as above; assay type: cell-based
Escherichia coli = test: as above
Candida albicans = test: as above; set-up: MIC SP-BIM 13 only / MIC in combination: Antibiotic / MIC antibiotic only: unit not given beside the values
Escherichia coli O157:H7 = test: Rescue concentrations of SP-BIM that reactivate antibiotic; assay type: cell-based
[5] = SP-BIM 9 in combination with the labelled antibiotic
[6] = SP-BIM 13 in combination with the labelled antibiotic
[7] = antibiotic in combination with SP-BIM 9
[8] = antibiotic in combination with SP-BIM 13
[9] = Streptococcus pneumoniae, antibiotic + SP-BIM 13

## C[C@H]1[C@H](NC(=O)/C(=N\OC(C)(C)C(=O)O)c2csc(N)n2)C(=O)N1S(=O)(=O)O [Aztreonam, aztreonam]
MRSA
  MIC: > 250 µg/mL
Streptococcus pneumoniae [1]
  MIC: > 250 µg/mL
Klebsiella pneumoniae [2]
  MIC: 8 µg/mL
Staphylococcus aureus; 24 h, antibiotic alone, SP-BIM 9 checkerboard, read-out: MIC antibiotic only
  MIC: > 250 µg/mL
Staphylococcus aureus; 24 h, antibiotic alone, SP-BIM 13 checkerboard, read-out: MIC antibiotic only
  MIC: > 250 µg/mL
Staphylococcus aureus; MRSA, read-out: MIC of aztreonam only, MRSA, checkerboard
  MIC: 250 µg/mL
Staphylococcus aureus; [5]
  FIC of SP-BIM 9: 0.12
Staphylococcus aureus; [6]
  FIC of SP-BIM 13: 0.5
Staphylococcus aureus; antibiotic + SP-BIM 9
  Interpretation: Synergy (Synergy: FICI≤0.5)
  Σ FIC: <0.16
Staphylococcus aureus; antibiotic + SP-BIM 13
  Interpretation: Additive (Additive: FICI>0.5-1.0)
  Σ FIC: <0.6
Staphylococcus aureus; [7]
  MIC in combination, Antibiotic: 8.0 µg/mL
Staphylococcus aureus; [8]
  MIC in combination, Antibiotic: 32 µg/mL
Staphylococcus aureus; in combination with SP-BIM 9
  FIC of antibiotic: 0.03
Staphylococcus aureus; in combination with SP-BIM 13
  FIC of antibiotic: 0.1
Streptococcus pneumoniae [3]; Streptococcus pneumonia (title: Streptococcus pyogenes), antibiotic + SP-BIM 9
  Σ FIC: <0.00
Streptococcus pneumoniae [3]; Streptococcus pneumoniae, SP-BIM 13 in combination with the labelled antibiotic
  FIC of SP-BIM 13: 0.3
Streptococcus pneumoniae [3]; [9]
  Interpretation: Synergy (Synergy: FICI≤0.5)
  Σ FIC: <0.3
Streptococcus pneumoniae [3]; Streptococcus pneumoniae, antibiotic in combination with SP-BIM 13
  MIC in combination, Antibiotic: 8 µg/mL
Streptococcus pneumoniae [3]; Streptococcus pneumoniae, in combination with SP-BIM 13
  FIC of antibiotic: 0.1
Bacillus cereus; SP-BIM 9 checkerboard
  MIC: > 250 µg/mL
Bacillus cereus; SP-BIM 13 checkerboard
  MIC: 250 µg/mL
Bacillus cereus; SP-BIM 9 concentration in combination with the labelled antibiotic
  MIC in combination, SP-BIM 9: 63 µg/mL
Bacillus cereus; [5]
  FIC of SP-BIM 9: 0.252
Bacillus cereus; [6]
  FIC of SP-BIM 13: 0.5
Bacillus cereus; antibiotic + SP-BIM 9
  Interpretation: Synergy (Synergy: FICI≤0.5)
  Σ FIC: <0.5
Bacillus cereus; antibiotic + SP-BIM 13
  Interpretation: Indifferent (Indifferent: FICI>1.0-4.0)
  Σ FIC: 1.5
Bacillus cereus; [7]
  MIC in combination, Antibiotic: 63 µg/mL
Bacillus cereus; [8]
  MIC in combination, Antibiotic: 250 µg/mL
Bacillus cereus; in combination with SP-BIM 9
  FIC of antibiotic: 0.252
Bacillus cereus; in combination with SP-BIM 13
  FIC of antibiotic: 1.00
Enterococcus faecium; [6]
  FIC of SP-BIM 13: 1.0
Enterococcus faecium; antibiotic + SP-BIM 13
  Interpretation: Indifferent (Indifferent: FICI>1.0-4.0)
  Σ FIC: 2.0
Enterococcus faecium; in combination with SP-BIM 13
  FIC of antibiotic: 1.0
Klebsiella pneumoniae [4]; [5]
  FIC of SP-BIM 9: 0.064
Klebsiella pneumoniae [4]; [6]
  FIC of SP-BIM 13: 0.3
Klebsiella pneumoniae [4]; antibiotic + SP-BIM 9
  Interpretation: Synergy (Synergy: FICI≤0.5)
  Σ FIC: <0.1
Klebsiella pneumoniae [4]; antibiotic + SP-BIM 13
  Interpretation: Synergy (Synergy: FICI≤0.5)
  Σ FIC: <0.3
Klebsiella pneumoniae [4]; [7]
  MIC in combination, Antibiotic: 1 µg/mL
Klebsiella pneumoniae [4]; [8]
  MIC in combination, Antibiotic: 8 µg/mL
Klebsiella pneumoniae [4]; in combination with SP-BIM 9
  FIC of antibiotic: 0.008
Klebsiella pneumoniae [4]; in combination with SP-BIM 13
  FIC of antibiotic: 0.1
Escherichia coli; [5]
  FIC of SP-BIM 9: 0.5
Escherichia coli; [6]
  FIC of SP-BIM 13: 1.0
Escherichia coli; antibiotic + SP-BIM 9
  Interpretation: Synergy (Synergy: FICI≤0.5)
  Σ FIC: <0.8
Escherichia coli; antibiotic + SP-BIM 13
  Interpretation: Indifferent (Indifferent: FICI>1.0-4.0)
  Σ FIC: <2.0
Escherichia coli; [7]
  MIC in combination, Antibiotic: 32 µg/mL
Escherichia coli; combination with SP-BIM 13
  FIC of antibiotic: 1.0
Escherichia coli; in combination with SP-BIM 9
  FIC of antibiotic: 0.256
Candida albicans; 24 h, read-out: MIC antibiotic only
  MIC: > 250 µg/mL
Candida albicans; MIC of the antibiotic in combination with SP-BIM 13
  MIC in combination: Antibiotic: 250
Candida albicans; [6]
  FIC of SP-BIM 13: 1.0
Candida albicans; antibiotic + SP-BIM 13
  Interpretation: Indifferent (Indifferent: FICI>1.0-4.0)
  Σ FIC: <2.0
Candida albicans; combination with SP-BIM 13
  FIC of antibiotic: 1.0

## Oc1ccc2[nH]cc(C(c3ccc(Br)cc3)c3c[nH]c4ccc(O)cc34)c2c1 [SP-BIM 26, 3,3′-((4-bromophenyl)methylene)bis(1H-indol-5-ol)]
Escherichia coli O157:H7; E. coli O157:H7
  MIC of vancomycin in combination with […] SP-BIM 26: 4 µg/mL
Escherichia coli O157:H7; Escherichia coli, read-out: MIC (single agent)
  MIC: > 250 µg/mL
